Test results as given in ChEMBL document CHEMBL4004877, “Synthesis and biological evaluation of chalcone, dihydrochalcone, and 1,3-diarylpropane analogs as anti-inflammatory agents” (Bioorg Med Chem Lett, 2017).
In brackets after ≈: the same amount, converted by molar mass.

Key:
[1] = tested on: RAW264.7; test: Antiinflammatory activity in mouse RAW264.7 cells assessed as inhibition of LPS induced iNOS-dependent nitric oxide production at 2.5 ug/ml after 24 hrs by Griess assay relative to control; assay type: functional; conditions: RAW264.7, 24 h
[2] = tested on: RAW264.7; test: Antiinflammatory activity in mouse RAW264.7 cells assessed as inhibition of LPS induced iNOS-dependent nitric oxide production at 1.25 ug/ml after 24 hrs by Griess assay relative to control; assay type: functional; conditions: RAW264.7, 24 h
[3] = Cytotoxicity against LPS-stimulated mouse RAW264.7 cells assessed as cell viability at 10 ug/ml after 24 hrs by MTT assay relative to control; assay type: cell-based; conditions: LPS-stimulated RAW264.7 cells, read-out: Activity
[4] = Cytotoxicity against LPS-stimulated mouse RAW264.7 cells assessed as cell viability at 5 ug/ml after 24 hrs by MTT assay relative to control; assay type: cell-based; conditions: LPS-stimulated RAW264.7 cells, read-out: Activity
[5] = Cytotoxicity against LPS-stimulated mouse RAW264.7 cells assessed as cell viability at 2.5 ug/ml after 24 hrs by MTT assay relative to control; assay type: cell-based; conditions: LPS-stimulated RAW264.7 cells, read-out: Activity
[6] = tested on: RAW264.7; test: Antiinflammatory activity in mouse RAW264.7 cells assessed as inhibition of LPS induced iNOS-dependent nitric oxide production after 24 hrs by Griess assay; assay type: functional, cell-based; conditions: RAW264.7, 24 h
[7] = tested on: RAW264.7; test: Antiinflammatory activity in mouse RAW264.7 cells assessed as inhibition of LPS induced iNOS-dependent nitric oxide production at 5 ug/ml after 24 hrs by Griess assay relative to control; assay type: functional; conditions: RAW264.7, 24 h
[8] = tested on: RAW264.7; test: Antiinflammatory activity in mouse RAW264.7 cells assessed as inhibition of LPS induced iNOS-dependent nitric oxide production at 10 ug/ml after 24 hrs by Griess assay relative to control; assay type: functional; conditions: RAW264.7, 24 h
[9] = Cytotoxicity against LPS-stimulated mouse RAW264.7 cells assessed as cell viability at 1.25 ug/ml after 24 hrs by MTT assay relative to control; assay type: cell-based; conditions: LPS-stimulated RAW264.7 cells, read-out: Activity

| Structure (SMILES) | inhibition at 2.5 µg/mL [1] [%] | inhibition at 1.25 µg/mL [2] [%] | viability at 24 h, 10 ug/ml [3] [%] | viability at 24 h, 5 ug/ml [4] [%] | viability at 24 h, 2.5 ug/ml [5] [%] | IC50 [6] [µg/mL] | inhibition at 5 µg/mL [7] [%] | inhibition at 10 µg/mL [8] [%] | viability at 24 h, 1.25 ug/ml [9] [%] |
| --- | --- | --- | --- | --- | --- | --- | --- | --- | --- |
| COc1ccc(C(=O)CCc2ccc3c(c2)OCO3)c(O)c1 | 10.6 | 5.1 | 94.4 | 96.2 | 96.8 | > 10 | 14.1 | 25.9 | 99.8 |
| COc1ccc(/C=C/C(=O)c2ccc(OC)cc2O)cc1 | 3.5 | 9.4 | 72.6 | 75.2 | 72.3 | 4.73 (≈ 16.6 µM) | 54 | 78.2 | 93.3 |
| COc1cc(C(=O)CCc2ccc3c(c2)OCO3)ccc1O | 5.5 | 4.2 | 89 | 92 | 94.5 | 9.44 (≈ 31.4 µM) | 32.2 | 51.6 | 95.3 |
| COc1ccc(C(=O)/C=C/c2ccc3c(c2)OCO3)c(OC)c1 | 51.9 | 2.4 | 66.2 | 69.2 | 70.4 | 2.43 (≈ 7.78 µM) | 52 | 62.4 | 92.7 |
| COc1ccc(CCC(=O)c2cccc(O)c2)c(OC)c1 | 17.1 | 7.9 | 74.8 | 88.8 | 88.5 | 9.42 (≈ 32.9 µM) | 25.4 | 52.3 | 92.1 |
| COc1ccc(OC)c(CCC(=O)c2cccc(O)c2)c1 | 18.4 | 15.7 | 93.6 | 97.5 | 96.8 | > 10 | 22.3 | 38.5 | 98.6 |
| COc1ccc(CCC(=O)c2ccc(OC)c(OC)c2)cc1OC | 8.2 | 5.9 | 95.3 | 96.2 | 98 | > 10 | 13.8 | 31.1 | 99.6 |
| COc1ccc(CCC(=O)c2cccc(O)c2)cc1OC | 18.6 | 5.4 | 97.9 | 98 | 98.9 | 6.58 (≈ 23 µM) | 46.2 | 55.8 | 101 |
| COc1ccc(CCCc2cccc(O)c2)cc1 | 20.5 | 22.2 | 76.2 | 94.1 | 99.2 | 7.72 (≈ 31.9 µM) | 40.1 | 55.9 | 99.9 |
| COc1ccc(CCC(=O)c2cccc(O)c2)cc1 | 11 | 5.1 | 86.3 | 94.5 | 97.1 | > 10 | 20.1 | 40.5 | 97.5 |
| COc1ccc(C(=O)/C=C/c2cccc(OC)c2OC)c(O)c1 | 54.7 | 1.3 | 60.3 | 69.7 | 72.9 | 2.35 (≈ 7.48 µM) | 55.3 | 59.7 | 94.2 |
| COc1ccc(C(=O)CCc2ccc(OC)cc2OC)c(O)c1 | 3.4 | 3 | 83.4 | 87.4 | 96.2 | > 10 | 9 | 21.6 | 97.8 |
| COc1cc(CCCc2ccc3c(c2)OCO3)ccc1O | 46.8 | 42.4 | 58.2 | 93.3 | 96.2 | 3.64 (≈ 12.7 µM) | 52.7 | 78.3 | 98.5 |
| COc1cccc(CCC(=O)c2cccc(O)c2)c1OC | 14.1 | 7.5 | 91.4 | 93.4 | 94 | > 10 | 25 | 47.5 | 96.4 |
| COc1cccc(CCCc2cccc(O)c2)c1OC | 18.4 | 16.3 | 69.6 | 96.1 | 97.4 | 8.09 (≈ 29.7 µM) | 18.3 | 63.9 | 97.1 |
| COc1ccc(CCC(=O)c2ccc(OC)cc2O)cc1 | 10.5 | 7.8 | 88 | 92.3 | 94.5 | > 10 | 14.5 | 25.9 | 95.1 |
| COc1ccc(/C=C/C(=O)c2ccc(OC)c(OC)c2)cc1O | 1.8 | 1.1 | 73.5 | 73 | 82.1 | > 10 | 2.6 | 9.8 | 91.4 |
| COc1ccc(C(=O)CCc2cccc(OC)c2OC)c(O)c1 | 2.8 | 0.8 | 92.8 | 92.7 | 95.2 | > 10 | 5.4 | 18.6 | 96.6 |
| COc1cc(C(=O)/C=C/c2cccc(OC)c2OC)ccc1O | 3.1 | 3.9 | 63.7 | 67.8 | 94 | > 10 | 3.2 | 46.2 | 97.5 |
| COc1ccc(CCCc2ccc(OC)c(OC)c2)cc1O | 36.3 | 32.4 | 51.9 | 86.2 | 95.5 | 3.92 (≈ 13 µM) | 57.4 | 83.6 | 98 |
| COc1cc(CCCc2cccc(O)c2)ccc1O | 15.9 | 10.9 | 76.1 | 97.7 | 99.5 | 7.13 (≈ 27.6 µM) | 18.1 | 80.4 | 100 |
| COc1ccc(/C=C/C(=O)c2ccc(OC)c(OC)c2)cc1 | 52 | 5.1 | 73.9 | 78.9 | 93.1 | 2.43 (≈ 8.15 µM) | 52.1 | 85.5 | 97.2 |
| COc1ccc(CCCc2ccc(OC)c(OC)c2OC)c(O)c1 | 34.9 | 33.3 | 36.7 | 84.5 | 95.5 | 4.03 (≈ 12.1 µM) | 56.8 | 68.1 | 96.3 |
| COc1ccc(CCC(=O)c2ccc(OC)c(OC)c2)cc1 | 32.5 | 14.1 | 90.6 | 95.1 | 98.6 | 4.35 (≈ 14.5 µM) | 54.4 | 57.2 | 99.1 |
| COc1ccc(CCCc2ccc3c(c2)OCO3)c(O)c1 | 39.4 | 32.6 | 15.6 | 71.4 | 95.3 | 4.12 (≈ 14.4 µM) | 54.1 | 85.9 | 97.5 |
| COc1cc(C(=O)CCc2cccc(OC)c2OC)ccc1O | 4.4 | 0.1 | 90.5 | 91.1 | 94.5 | > 10 | 15.9 | 33.3 | 94.1 |
| COc1ccc(CCCc2ccc(OC)cc2O)cc1 | 30.5 | 25.7 | 73.8 | 94.6 | 96.8 | 6.37 (≈ 23.4 µM) | 37.8 | 72.5 | 98.9 |
